US20240124389A1, “COMPOUND OR SALT THEREOF, LIPID PARTICLES, AND PHARMACEUTICAL COMPOSITION” (FUJIFILM Corporation, priority 2021, published 2024)

Tested on: EPO mRNA
Assay: mRNA encapsulation rate of EPO mRNA-encapsulating lipid particles
Type: physicochemical
Settings: aminolipid 50 / DOPE 10 / cholesterol 38.5 / DMG-PEG2000 1.5 mol %, lipid/nucleic acid 64 wt/wt
Procedure, shortened: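 Lipid particles made by mixing lipids in ethanol (20 mmol/L total) with EPO mRNA in 50 mmol/L citrate pH 4 (lipid:mRNA weight ratio about 16:1–64:1), then dialysed against 10% sucrose. Total mRNA measured after ethanol precipitation; outer-phase mRNA by RiboGreen fluorescence (ex 485/em 535 nm). Encapsulation (%) = (total − outer)/total × 100.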

Structure (SMILES)	Nucleic acid encapsulation rate [%]
CCCCCCC(CCCC)COC(=O)CCCC(CCCCCC)OC(=O)OCCN(CCOC(=O)OC(CCCCCC)CCCC(=O)OCC(CCCC)CCCCCC)CCN(CC)CC (centres unmarked) [Example 8, Bis(2-butyloctyl) 11-(2-(diethylamino)ethyl)-5,17-dihexyl-7,15-dioxo-6,8,14,16-tetraoxa-11-azahenicosanedioate]	98.0
CCCCCC(CCCCC)COC(=O)CCCC(CCC)OC(=O)OCCN(CCOC(=O)OC(CCC)CCCC(=O)OCC(CCCCC)CCCCC)CCN(CC)CC (centres unmarked) [Example 21, Bis(2-pentylheptyl) 11-(2-(diethylamino)ethyl)-7,15-dioxo-5,17-dipropyl-6,8,14,16-tetraoxa-11-azahenicosanedioate]	99.9
CCCCCCCOC(=O)CCCC(CCCC(=O)OCCCCCCC)OC(=O)OCCN(CCOC(=O)OC(CCCC(=O)OCCCCCCC)CCCC(=O)OCCCCCCC)CCN(CC)CC [Example 29, diheptyl 11-(2-(diethylamino)ethyl)-5,17-bis(4-(heptyloxy)-4-oxobutyl)-7,15-dioxo-6,8,14,16-tetraoxa-11-azahenicosanedioate]	97.1
CCCCCCCOC(=O)CCCC(CCCC(=O)OCCCCCCC)OC(=O)OCCN(CCOC(=O)OC(CCCC(=O)OCCCCCC)CCCC(=O)OCCCCCC)CCN(CC)CC [Example 37, 1-Heptyl 21-hexyl 11-(2-(diethylamino)ethyl)-5-(4-(heptyloxy)-4-oxobutyl)-17-(4-(hexyloxy)-4-oxobutyl)-7,15-d ioxo-6,8,14,16-tetraoxa-11-azahenicosanedioate]	99.0
CCCCCCC(CCCC(=O)OCC(CCCCC)CCCCC)OC(=O)OCCN(CCCN(CC)CC)CCOC(=O)OC(CCCCCC)CCCC(=O)OCC(CCCCC)CCCCC (centres unmarked) [Example 13, Bis(2-pentylheptyl) 11-(3-(diethylamino)propyl)-5,17-dihexyl-7,15-dioxo-6,8,14,16-tetraoxa-11-azahenicosanedio ate]	98.5
